In patent US11028087B2, “2,6-disubstituted-9-cyclopentyl-9H-purines, use thereof as medicaments, and pharmaceutical compositions” (UNIVERZITA PALACKEHO V OLOMOUCI, priority 2017, dated 2021):
Where a chain is given by its changes, count along the chain named.

Tests used:
[1] = system: EOL-1 (eosinophilic leukaemia, carrying the fusion FIP1L1-PDGFRA); assay: Calcein AM cytotoxicity assay; type: cell-based; conditions: Homo sapiens, EOL1, 72 h; EOL-1; Calcein AM, three days; read-out: EC50 values (μM) EOL-1
Description: (§1) Cytotoxicity of the compounds is the major property determining their anticancer effect in vivo. One of the parameters used, as the basis for cytotoxicity assays, is the integrity of cytoplasmic membrane of viable cells. For example, a microtiter assay, which uses acetomethoxy derivate of calcein (Calcein AM), is widely used for evaluation of cell proliferation and cytotoxicity. This assay is used in drug screening programs and in chemosensitivity testing. Intracellular esterases of viable cells convert calcein AM to green-fluorescent calcein of which signal corresponds to the number of viable cells in the culture.
(§2) We have been using the following cell lines: MV4-11 (acute myeloid leukemia, FLT3-ITD positive), MOLM-13 (acute myeloid leukemia, FLT3-ITD positive), THP-1 (acute myeloid leukemia, wt FLT3), U937 (monocytic leukemia, wt FLT3), EOL-1 (eosinophilic leukaemia, carrying the fusion FIP1L1-PDGFRA), H1703 (non-small cell lung carcinoma, PDGFRA amplification). […] K562 and MCF-7 cell lines were maintained in DMEM supplemented with 10% fetal bovine serum, penicilin (100 U/ml) and streptomycin (100 μg/ml). All cell lines were cultivated at 37° C. in 5% CO2. For cytotoxicity assays, cells were seeded in appropriate densities into 96 well plates and the next day tested compounds were added at various concentrations in triplicates. Three days after drug addition, Calcein AM solution (final concentration 1 μg/ml; Thermo Scientific, USA) was added into each well and incubated for 1 h.

K562 = assay: Calcein AM cytotoxicity assay; type: cell-based; conditions: Homo sapiens, 72 h; K562; Calcein AM, three days; read-out: EC50 values (μM) K562
Description: as §1, §2

MCF-7 = assay: Calcein AM cytotoxicity assay; type: cell-based; conditions: Homo sapiens, MCF7, 72 h; MCF-7; Calcein AM, three days; read-out: EC50 values (μM) MCF-7
Description: as §1, §2

[2] = system: MOLM-13 (acute myeloid leukemia, FLT3-ITD positive); assay: Calcein AM cytotoxicity assay; type: cell-based; conditions: Homo sapiens, 72 h; MOLM-13; Calcein AM, three days; read-out: EC50 values (μM) MOLM-13
Description: as §1, §2

[3] = system: MV4-11 (acute myeloid leukemia, FLT3-ITD positive); assay: Calcein AM cytotoxicity assay; type: cell-based; conditions: Homo sapiens, 72 h; MV4-11; Calcein AM, three days after drug addition; read-out: EC50 values (μM) MV4-11
Description: as §1, §2

[4] = system: THP-1 (acute myeloid leukemia, wt FLT3); assay: Calcein AM cytotoxicity assay; type: cell-based; conditions: Homo sapiens, 72 h; THP-1; Calcein AM, three days; read-out: EC50 values (μM) THP-1
Description: as §1, §2

[5] = system: U937 (monocytic leukemia, wt FLT3); assay: Calcein AM cytotoxicity assay; type: cell-based; conditions: Homo sapiens, U-937, 72 h; U937; Calcein AM, three days; read-out: EC50 values (μM) U937
Description: as §1, §2

[6] = system: Kasumi-1 (acute myeloid leukemia, KIT mutation Asn822Lys); assay: Calcein AM cytotoxicity assay; type: cell-based; conditions: Homo sapiens, 72 h; Kasumi-1; Calcein AM, three days; read-out: EC50 values (μM) Kasumi-1
Description: as §1
We have been using the following cell lines: MV4-11 (acute myeloid leukemia, FLT3-ITD positive), MOLM-13 (acute myeloid leukemia, FLT3-ITD positive), THP-1 (acute myeloid leukemia, wt FLT3), U937 (monocytic leukemia, wt FLT3), EOL-1 (eosinophilic leukaemia, carrying the fusion FIP1L1-PDGFRA), H1703 (non-small cell lung carcinoma, PDGFRA amplification). They were maintained in RPMI-1640 supplemented with 10% fetal bovine serum, penicillin (100 U/ml) and streptomycin (100 μg/ml). Kasumi-1 (acute myeloid leukemia, KIT mutation Asn822Lys) cells were cultivated in RPMI-1640 supplemented with 15% fetal bovine serum, penicillin (100 U/ml) and streptomycin (100 μg/ml). K562 and MCF-7 cell lines were maintained in DMEM supplemented with 10% fetal bovine serum, penicilin (100 U/ml) and streptomycin (100 μg/ml). All cell lines were cultivated at 37° C. in 5% CO2. For cytotoxicity assays, cells were seeded in appropriate densities into 96 well plates and the next day tested compounds were added at various concentrations in triplicates. Three days after drug addition, Calcein AM solution (final concentration 1 μg/ml; Thermo Scientific, USA) was added into each well and incubated for 1 h. After this incubation period, fluorescence of the live cells was measured at 485 nm/538 nm (ex/em) with a Fluoroskan Ascent microplate reader (Labsystems).

HL60 = assay: Calcein AM cytotoxicity assay; type: cell-based; conditions: Homo sapiens, HL-60, 72 h, three days
CDK1/Cyclin B = target: T1, CDK1/Cyclin B (Homo sapiens, UniProt P06493); assay: Kinase inhibition assay with [γ-33P]ATP; type: biochemical; conditions: histone H1, 15 μM ATP
T1 construct: made in house; host or cells: Sf9 insect cells, baculoviral infection
T1 sequence (P06493 whole entry, species assumed): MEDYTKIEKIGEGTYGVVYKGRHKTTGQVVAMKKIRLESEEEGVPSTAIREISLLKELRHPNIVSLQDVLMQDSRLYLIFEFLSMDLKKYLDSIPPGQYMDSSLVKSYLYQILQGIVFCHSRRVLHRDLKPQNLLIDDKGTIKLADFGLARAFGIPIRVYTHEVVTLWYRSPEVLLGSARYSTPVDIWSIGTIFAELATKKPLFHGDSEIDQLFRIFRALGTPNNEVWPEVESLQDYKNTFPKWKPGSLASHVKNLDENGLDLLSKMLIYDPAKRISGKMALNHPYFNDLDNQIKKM
T1 sequence (P14635 whole entry partner, species assumed): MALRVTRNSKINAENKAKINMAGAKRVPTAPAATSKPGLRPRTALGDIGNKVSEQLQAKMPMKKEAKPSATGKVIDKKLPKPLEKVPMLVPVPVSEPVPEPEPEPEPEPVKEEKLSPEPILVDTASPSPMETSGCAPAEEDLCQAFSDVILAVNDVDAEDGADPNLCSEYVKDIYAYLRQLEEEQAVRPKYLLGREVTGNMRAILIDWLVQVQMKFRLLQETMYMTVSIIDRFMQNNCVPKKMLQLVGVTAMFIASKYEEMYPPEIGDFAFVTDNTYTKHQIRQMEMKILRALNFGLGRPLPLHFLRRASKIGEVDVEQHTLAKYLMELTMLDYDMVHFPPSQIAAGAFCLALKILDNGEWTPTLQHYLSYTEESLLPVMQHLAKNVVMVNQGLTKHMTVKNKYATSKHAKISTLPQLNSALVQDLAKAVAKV
Description: (§3) CDK1/Cyclin B and CDK2/Cyclin E kinases were produced in Sf9 insect cells via baculoviral infection and purified on a NiNTA column (Qiagen). CDK5/p35 and CDK7Cyclin H/MAT1, FLT3 WT, FLT3-ITD and FLT3 D835 were purchased from ProQinase GmbH. The kinase reactions were assayed with 1 mg/mL histone H1 (for CDK1, CDK2 and CDK5), (YSPTSPS)2KK peptide (for CDK7) or AGLT substrate (for FLT3) in the presence of 15/15/0.15/1.5/1 μM ATP (for CDK1/CDK2/CDK5/CDK7/FLT3), 0.05 μCi [γ-^33P]ATP and of the test compound in a final volume of 10 μL, all in a reaction buffer (60 mM HEPES-NaOH, pH 7.5, 3 mM MgCl2, 3 mM MnCl2, 3 μM Na-orthovanadate, 1.2 mM DTT, 2.5 μg/50 μl PEG20,000). The reactions were stopped by adding 5 μL of 3% aq H3PO4. Aliquots were spotted onto P-81 phosphocellulose (Whatman), washed 3× with 0.5% aq H3PO4 and finally air-dried.

CDK2/Cyclin E = target: T2, CDK2/Cyclin E (Homo sapiens, UniProt P24941); assay: Kinase inhibition assay with [γ-33P]ATP; type: biochemical; conditions: histone H1, 15 μM ATP; read-out: IC50 values (μM) CDK2
T2 construct: made in house; host or cells: Sf9 insect cells, baculoviral infection
Description: as §3

CDK5/p35 = target: T3, CDK5/p35 (Homo sapiens, UniProt Q00535); assay: Kinase inhibition assay with [γ-33P]ATP; type: biochemical; conditions: histone H1, 0.15 μM ATP
T3 construct: purchased ProQinase GmbH
T3 sequence (Q00535 whole entry): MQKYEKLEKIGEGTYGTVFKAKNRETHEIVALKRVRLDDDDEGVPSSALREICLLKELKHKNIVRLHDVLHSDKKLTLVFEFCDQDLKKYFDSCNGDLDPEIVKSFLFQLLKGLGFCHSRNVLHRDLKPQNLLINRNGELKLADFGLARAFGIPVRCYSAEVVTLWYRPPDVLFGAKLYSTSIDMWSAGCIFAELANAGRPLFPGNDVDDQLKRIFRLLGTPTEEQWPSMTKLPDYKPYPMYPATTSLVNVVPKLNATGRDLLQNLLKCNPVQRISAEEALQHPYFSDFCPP
T3 sequence (Q15078 whole entry partner): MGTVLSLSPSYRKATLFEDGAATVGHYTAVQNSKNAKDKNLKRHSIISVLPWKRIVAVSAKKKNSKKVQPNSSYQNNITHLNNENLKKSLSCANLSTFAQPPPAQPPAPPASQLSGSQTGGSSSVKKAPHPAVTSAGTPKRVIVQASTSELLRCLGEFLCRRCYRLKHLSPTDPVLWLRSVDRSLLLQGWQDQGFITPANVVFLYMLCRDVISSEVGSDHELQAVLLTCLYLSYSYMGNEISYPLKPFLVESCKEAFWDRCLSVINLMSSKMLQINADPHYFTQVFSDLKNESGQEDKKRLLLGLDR
Description: as §3

FLT3 D835 = target: T4, FLT3 D835 (Homo sapiens, UniProt P36888); assay: Kinase inhibition assay with [γ-33P]ATP; type: biochemical; conditions: AGLT substrate, 1 μM ATP
T4 sequence (P36888 1-993 D835Y): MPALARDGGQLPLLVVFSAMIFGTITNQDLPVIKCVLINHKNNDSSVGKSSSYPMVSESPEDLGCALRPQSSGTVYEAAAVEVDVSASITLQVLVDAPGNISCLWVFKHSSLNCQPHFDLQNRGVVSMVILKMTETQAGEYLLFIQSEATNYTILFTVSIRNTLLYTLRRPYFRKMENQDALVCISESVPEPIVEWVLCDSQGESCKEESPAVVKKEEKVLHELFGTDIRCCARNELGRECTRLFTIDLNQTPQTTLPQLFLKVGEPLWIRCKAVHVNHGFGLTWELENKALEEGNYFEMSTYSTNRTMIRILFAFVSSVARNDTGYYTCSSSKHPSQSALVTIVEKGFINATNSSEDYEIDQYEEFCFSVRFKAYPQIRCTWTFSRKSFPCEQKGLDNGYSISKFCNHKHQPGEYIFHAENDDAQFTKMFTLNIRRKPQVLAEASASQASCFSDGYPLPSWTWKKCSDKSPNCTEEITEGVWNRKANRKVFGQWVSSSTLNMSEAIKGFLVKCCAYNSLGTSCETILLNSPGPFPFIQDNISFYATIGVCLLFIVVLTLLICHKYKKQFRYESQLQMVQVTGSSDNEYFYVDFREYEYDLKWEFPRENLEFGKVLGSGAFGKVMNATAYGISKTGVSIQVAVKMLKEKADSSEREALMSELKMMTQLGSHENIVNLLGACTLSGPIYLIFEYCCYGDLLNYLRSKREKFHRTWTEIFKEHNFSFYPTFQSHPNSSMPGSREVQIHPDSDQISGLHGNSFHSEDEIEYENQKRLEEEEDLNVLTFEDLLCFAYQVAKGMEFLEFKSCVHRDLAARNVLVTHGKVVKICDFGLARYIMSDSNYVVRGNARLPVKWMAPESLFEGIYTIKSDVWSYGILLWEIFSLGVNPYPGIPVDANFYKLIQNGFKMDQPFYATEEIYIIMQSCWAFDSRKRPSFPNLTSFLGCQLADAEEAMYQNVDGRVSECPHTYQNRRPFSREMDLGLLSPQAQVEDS
Description: as §3

FLT3 WT = target: T5, FLT3 WT (Homo sapiens, UniProt P36888); assay: Kinase inhibition assay with [γ-33P]ATP; type: biochemical; conditions: AGLT substrate, 1 μM ATP
T5 construct: purchased ProQinase GmbH
T5 sequence (P36888 27-993): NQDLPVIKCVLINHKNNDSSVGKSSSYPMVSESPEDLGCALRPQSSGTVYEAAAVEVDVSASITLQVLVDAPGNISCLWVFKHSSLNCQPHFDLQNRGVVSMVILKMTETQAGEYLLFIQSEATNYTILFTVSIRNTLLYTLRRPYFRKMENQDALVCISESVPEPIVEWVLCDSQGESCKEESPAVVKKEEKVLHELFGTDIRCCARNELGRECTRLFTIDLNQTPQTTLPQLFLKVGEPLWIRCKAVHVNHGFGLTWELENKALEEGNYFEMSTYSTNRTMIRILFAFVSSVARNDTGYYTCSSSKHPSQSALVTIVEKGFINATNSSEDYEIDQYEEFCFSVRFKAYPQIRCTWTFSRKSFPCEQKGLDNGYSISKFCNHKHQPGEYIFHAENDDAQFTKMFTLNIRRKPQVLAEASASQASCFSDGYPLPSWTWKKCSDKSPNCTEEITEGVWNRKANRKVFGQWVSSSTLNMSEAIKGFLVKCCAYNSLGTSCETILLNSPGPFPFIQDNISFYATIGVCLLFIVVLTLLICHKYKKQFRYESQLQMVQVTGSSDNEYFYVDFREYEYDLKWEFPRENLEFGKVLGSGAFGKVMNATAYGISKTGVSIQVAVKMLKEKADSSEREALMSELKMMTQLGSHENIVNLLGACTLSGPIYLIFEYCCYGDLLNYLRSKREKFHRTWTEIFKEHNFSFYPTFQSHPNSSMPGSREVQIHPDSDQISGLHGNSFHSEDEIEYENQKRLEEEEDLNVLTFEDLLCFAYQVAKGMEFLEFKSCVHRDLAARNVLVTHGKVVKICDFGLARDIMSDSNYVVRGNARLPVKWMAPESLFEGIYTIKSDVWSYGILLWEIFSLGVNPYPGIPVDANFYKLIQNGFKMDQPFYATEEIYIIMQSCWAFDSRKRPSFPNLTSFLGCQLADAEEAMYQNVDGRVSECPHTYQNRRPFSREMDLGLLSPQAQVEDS
Description: as §3

FLT3-ITD = target: T6, FLT3-ITD (Homo sapiens, UniProt P36888); assay: Kinase inhibition assay with [γ-33P]ATP; type: biochemical; conditions: AGLT substrate, 1 μM ATP; read-out: IC50 values (μM) FLT3 ITD
T6 sequence (P36888 1-993): T4 sequence (P36888 1-993 D835Y) with Y835D
Description: as §3

SMILES	EC50 [1] [µM]	EC50 (K562) [µM]	EC50 (MCF-7) [µM]	EC50 [2] [µM]	EC50 [3] [µM]	EC50 [4] [µM]	EC50 [5] [µM]	EC50 [6] [µM]	EC50 (HL60) [µM]	IC50 (CDK1/Cyclin B) [µM]	IC50 (CDK2/Cyclin E) [µM]	IC50 (CDK5/p35) [µM]	IC50 (FLT3 D835) [µM]	IC50 (FLT3 WT) [µM]	IC50 (FLT3-ITD) [µM]
NC1CCC(Nc2nc(Nc3ccc(CN4CC5(COC5)C4)nc3)c3ncn(C4CCCC4)c3n2)CC1 (stereo not drawn) [Compound 5]	0.019	0.432	0.41	0.014	0.011	0.903	0.44	0.588	1.21						
CCN1CC2(C1)CN(Cc1ccc(Nc3nc(NC4CCC(O)CC4)nc4c3ncn4C3CCCC3)cc1)C2 (stereo not drawn) [Compound 8]	0.049	0.391	0.22	0.056	0.042	2.1	1.35	0.636	1.42						
CCN1CC2(C1)CN(Cc1ccc(Nc3nc(NCCCN)nc4c3ncn4C3CCCC3)cc1)C2 [Compound 20]										0.04	0.005	0.044	0.004	0.015	0.004
